For data set [1], the target named is T1, Toll-like receptor 4 (Mus musculus) (UniProt Q9QUK6).
T1 sequence (whole entry): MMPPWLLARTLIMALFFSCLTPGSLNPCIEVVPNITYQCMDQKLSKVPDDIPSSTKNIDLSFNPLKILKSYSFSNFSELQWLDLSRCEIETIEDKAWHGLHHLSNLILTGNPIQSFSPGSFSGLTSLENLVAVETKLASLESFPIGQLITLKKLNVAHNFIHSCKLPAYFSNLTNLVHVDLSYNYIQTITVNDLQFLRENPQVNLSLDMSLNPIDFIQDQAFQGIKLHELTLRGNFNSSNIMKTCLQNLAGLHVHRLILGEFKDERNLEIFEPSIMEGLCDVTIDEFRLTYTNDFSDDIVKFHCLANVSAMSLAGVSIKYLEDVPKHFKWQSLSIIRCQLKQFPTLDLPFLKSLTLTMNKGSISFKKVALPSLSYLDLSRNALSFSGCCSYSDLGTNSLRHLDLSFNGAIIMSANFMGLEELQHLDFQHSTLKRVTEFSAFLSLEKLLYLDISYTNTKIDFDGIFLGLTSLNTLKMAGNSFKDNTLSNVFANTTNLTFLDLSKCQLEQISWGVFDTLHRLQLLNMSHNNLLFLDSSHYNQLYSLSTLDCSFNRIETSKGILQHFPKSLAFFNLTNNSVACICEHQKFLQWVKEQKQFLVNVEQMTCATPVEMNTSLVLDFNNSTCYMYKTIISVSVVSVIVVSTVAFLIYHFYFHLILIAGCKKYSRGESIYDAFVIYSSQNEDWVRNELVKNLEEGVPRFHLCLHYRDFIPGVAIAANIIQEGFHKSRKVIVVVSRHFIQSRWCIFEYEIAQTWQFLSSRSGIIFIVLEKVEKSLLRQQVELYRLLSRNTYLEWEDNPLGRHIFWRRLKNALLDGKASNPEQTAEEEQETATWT
The experiment in a line: Antagonist activity at TLR4 in mouse BMDM cells assessed as reduction in LPS-induced extracellular NO secretion by spectrophotometric method. It counts as cell-based.

Data set [2] concerns the target Toll-like receptor 1/2 (Mus musculus) (UniProt Q9QUN7+Q9EPQ1). The experiment in a line: Antagonist activity at TLR2/1 in mouse RAW264.7 cells assessed as reduction in PAM3CSK4-induced TNFalpha secretion at 20 to 80 uM after 24 hrs by ELISA. In kind it is cell-based. On the technique in general: In an ELISA, binding on a coated surface is turned into a signal by an enzyme label.

A further data set concerns Mus musculus. The experiment in a line: Antiinflammatory activity in C57BL/6J mouse assessed as reduction in LPS-induced IL-12p40 secretion at 70 nmol/g, ip pretreated for 1 hr followed by LPS challenge and measured after 2 hrs by ELISA. It counts as functional, organism-based.
For data set [3], the target named is T2, Toll-like receptor 4 (Homo sapiens, UniProt O00206). The experiment in a line: Antagonist activity at human TLR4 expressed in HEK-Blue cells assessed as reduction in LPS-induced SEAP activity pre-incubated for 1 hr followed by LPS stimulation and measured after 24 hrs by SEAP assay. It counts as cell-based.
In data set [4] the target is T1, Toll-like receptor 4 (Mus musculus). The experiment in a line: Antagonist activity at TLR4 in mouse BMDM cells assessed as reduction in LPS-induced IL6 secretion at 20 to 80 uM after 24 hrs by ELISA. In kind it is cell-based.
The target is the same in data set [5]. Briefly: Binding affinity to TLR4 in mouse RAW264.7 cells assessed as colocalization of TLR4 in plasma membrane at 40 uM preincubated for 1 hr followed by LPS challenge and measured after 30 mins using FITC-labelled compound by Alexafluor-488/Hoechst 33258 staining based immunofluorescence confocal microscopic method. It counts as cell-based.
The target of data set [6] is T2, Toll-like receptor 4. The experiment in a line: Antagonist activity at TLR4 in human PBMC cells assessed as reduction in LPS-induced IL6 secretion at 20 to 80 uM after 24 hrs by ELISA. In kind it is cell-based.
Another data set has as its system RAW264.7. Briefly: Cytotoxicity against mouse RAW264.7 cells assessed as reduction in cell viability at 20 to 80 uM after 24 hrs by MTT assay. It counts as cell-based. The note with it: raw264.7, 24 h. On the technique in general: Tetrazolium assays rely on reduction of a dye to a coloured formazan, in cell work by metabolically active cells.
Data set [7] concerns the target T1, Toll-like receptor 4 (Mus musculus). Briefly: Antagonist activity at TLR4 in mouse RAW264.7 cells assessed as reduction in LPS-induced iNOS expression at 80 uM by Western blot analysis. In kind it is cell-based.
Data set [8] deals with T3, TLR2/TLR6 (Homo sapiens) (UniProt O60603+Q9Y2C9). The experiment in a line: Antagonist activity at TLR2/6 in human PBMC cells assessed as reduction in FSL-1-induced TNFalpha secretion at 20 to 80 uM after 24 hrs by ELISA. It counts as cell-based.
The target of data set [9] is T1, Toll-like receptor 4 (Mus musculus). Briefly: Antagonist activity at TLR4 in mouse RAW264.7 cells assessed as reduction in LPS-induced p38 phosphorylation at 80 uM after 15 to 30 mins by Western blot analysis. In kind it is cell-based. Background: A western blot detects proteins with antibodies after separation by electrophoresis.
The subject of data set [10] is Rattus norvegicus. The experiment in a line: Antiarthritic activity in Lewis rat model of complete Freund's adjuvant-induced arthritis assessed as reduction in mean articular index score at 1 nmol/g administered intra-articularly into knee joint for 6 weeks and measured every week during compound dosing. It counts as functional, organism-based.
Data set [11] addresses T1, Toll-like receptor 4 (Mus musculus). Briefly: Antagonist activity at TLR4 in mouse RAW264.7 cells assessed as reduction in LPS-induced cytosolic NO level at 50 uM by DAF-FM staining based FACS analysis. In kind it is cell-based.
Data set [12] has as its system Rattus norvegicus. The experiment in a line: Antiarthritic activity in Lewis rat model of complete Freund's adjuvant-induced arthritis assessed as reduction in ankle swelling and edema at 1 nmol/g administered intra-articularly into knee joint after 2 weeks by visual analysis. It counts as functional, organism-based.
Data set [13] has as its system Rattus norvegicus. Briefly: Antiarthritic activity in Lewis rat model of complete Freund's adjuvant-induced arthritis assessed as regeneration of glycosaminoglycans at the border between bone and cartilage at 1 nmol/g administered intra-articularly into knee joint measured on third week by Safranin-O staining based histopathological analysis. In kind it is functional, organism-based.

In data set [14] the test system is Rattus norvegicus. Briefly: Antiarthritic activity in Lewis rat model of complete Freund's adjuvant-induced arthritis assessed as increase in cartilage thickness at 1 nmol/g administered intra-articularly into knee joint after 1 week by H and E staining based histopathological analysis. In kind it is functional, organism-based.
For data set [15], the system named is Rattus norvegicus. Briefly: Antiarthritic activity in Lewis rat model of complete Freund's adjuvant-induced arthritis assessed as appearance of osteocytes at 1 nmol/g administered intra-articularly into knee joint after 1 week by H and E staining based histopathological analysis. In kind it is functional, organism-based.
The target of data set [16] is T2, Toll-like receptor 4. The experiment in a line: Antagonist activity at TLR4 in human THP1 cells assessed as reduction in LPS-induced NFkappaB p65 phosphorylation at 50 uM after 15 to 30 mins by Western blot analysis. In kind it is cell-based.
Data set [17] addresses TLR7 and TLR8 (Homo sapiens) (UniProt Q9NYK1+Q9NR97). Briefly: Antagonist activity at TLR7/8 in human THP1 cells assessed as reduction in R848-induced IL6 secretion at 50 uM after 24 hrs by ELISA. In kind it is cell-based.
Data set [18] deals with T3, TLR2/TLR6 (Homo sapiens). The experiment in a line: Antagonist activity at TLR2/6 in human THP1 cells assessed as reduction in FSL-1-induced IL6 secretion at 50 uM after 24 hrs by ELISA. In kind it is cell-based.
Data set [19] deals with T2, Toll-like receptor 4. The experiment in a line: Antagonist activity at TLR4 in human THP1 cells assessed as reduction in LPS-induced IkappaBalpha degradation at 50 uM after 15 to 30 mins by Western blot analysis. In kind it is cell-based.
Data set [20] has as its target T1, Toll-like receptor 4 (Mus musculus). Briefly: Antagonist activity at TLR4 in mouse RAW264.7 cells assessed as reduction in LPS-induced IFNbeta secretion at 5 to 50 uM after 24 hrs by ELISA. It counts as cell-based.
For data set [21] the target is unchanged. The experiment in a line: Antagonist activity at TLR4 in mouse RAW264.7 cells assessed as reduction in LPS-induced cytosolic ROS level at 50 uM by DCF-DA staining based FACS analysis. It counts as cell-based.

Activity calls are given as the source filed them. The calls are words filed in the database; no cut-off is given here. Where a SMILES comes first, the peptide text is derived from it. Bridges are numbered along the chain shown (N, C = ends).

T2 sequence (O00206 whole entry): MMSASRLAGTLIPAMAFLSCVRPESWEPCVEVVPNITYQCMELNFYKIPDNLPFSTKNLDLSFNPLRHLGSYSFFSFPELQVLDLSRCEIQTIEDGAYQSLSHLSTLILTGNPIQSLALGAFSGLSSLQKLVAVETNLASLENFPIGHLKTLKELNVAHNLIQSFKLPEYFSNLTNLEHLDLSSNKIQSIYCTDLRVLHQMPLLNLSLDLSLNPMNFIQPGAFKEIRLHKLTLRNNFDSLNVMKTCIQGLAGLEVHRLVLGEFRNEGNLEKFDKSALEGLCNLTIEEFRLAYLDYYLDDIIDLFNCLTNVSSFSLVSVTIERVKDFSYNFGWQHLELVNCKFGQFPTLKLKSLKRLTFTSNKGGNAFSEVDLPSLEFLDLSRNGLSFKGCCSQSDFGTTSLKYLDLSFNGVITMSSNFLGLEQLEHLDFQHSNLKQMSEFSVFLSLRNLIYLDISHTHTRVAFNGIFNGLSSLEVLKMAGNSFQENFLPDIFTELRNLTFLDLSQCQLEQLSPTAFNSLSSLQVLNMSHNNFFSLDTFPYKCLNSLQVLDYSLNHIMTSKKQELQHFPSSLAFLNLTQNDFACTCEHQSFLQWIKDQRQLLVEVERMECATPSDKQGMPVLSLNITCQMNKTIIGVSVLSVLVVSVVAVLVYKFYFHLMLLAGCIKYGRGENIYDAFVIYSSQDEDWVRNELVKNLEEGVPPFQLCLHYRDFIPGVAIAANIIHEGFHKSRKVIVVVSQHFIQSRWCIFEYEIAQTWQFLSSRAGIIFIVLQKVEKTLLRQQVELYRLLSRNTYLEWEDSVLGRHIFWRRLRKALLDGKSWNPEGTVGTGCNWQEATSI

For the compound H-LGVFSSWWIKLV-OH, the Activity entry in data set [1] was “Dose-dependent effect”; on Toll-like receptor 4 [3] it was “Dose-dependent effect”; with RAW264.7, “Non-Toxic”. In addition, the result (in data set [2]; at TLR2/TLR6 (Homo sapiens) [8]) was inactive. The outcome (in the data set on Mus musculus; in data set [4]; in [5]; at Toll-like receptor 4 [6]; in data set [7]; in [9]) was Active.

As for `CC[C@H](C)[C@@H]1NC(=O)[C@H](Cc2c[nH]c3ccccc23)NC(=O)[C@H](Cc2c[nH]c3ccccc23)NC(=O)[C@@H](NC(=O)[C@H](CO)NC(=O)[C@H](Cc2ccccc2)NC(=O)[C@@H](NC(=O)CNC(=O)[C@@H](N)CC(C)C)C(C)C)CC(=O)NCCCC[C@@H](C(=O)N[C@@H](CC(C)C)C(=O)N[C@H](C(=O)O)C(C)C)NC1=O` (H-LGVFSDWWIKLV-OH; lactam 6-10), the outcome (with Rattus norvegicus [10]; in data set [11]; in the data set on Rattus norvegicus [12]; in the data set on Rattus norvegicus [13]; in the data set on Rattus norvegicus [14]; in the data set on Rattus norvegicus [15]) was Active. For the same compound, the outcome (at Toll-like receptor 4 [16]; in data set [17]; on TLR2/TLR6 (Homo sapiens) [18]; on Toll-like receptor 4 [19]; in [20]; in data set [21]) was Active.
